Test system: primary human T-cells
Assay: Proliferation assay (5 days, CellTiter-Glo, CD3-stimulated T-cells)
Type: cell-based
Settings: for Emax proliferation (% activation): CD3 condition, normalised to DMSO (neutral) and 20 μM reference compound A1 = 100%; for EC50: Homo sapiens, T-cell, 120 h, CD3-stimulated primary human T-cells, 5 days, CellTiter-Glo, fitted sigmoidal curve, read-out: Tcell Proliferation CD3 EC50
Procedure, shortened: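 Proliferation read-out: ATP luminescence (CellTiter-Glo 2.0) at day 5 in expanded primary human T-cells on CD3 antibody-coated plates, with PBS-only plates as a counter screen. Compounds in 5–6 pt series (factor 3.333, top 20 or 10 μM final). Values are normalized to DMSO (neutral) and 20 μM reference A1 (100%), from sigmoidal fits.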

| Structure (SMILES) | Emax proliferation (% activation) | EC50 [nM] |
| --- | --- | --- |
| N[C@H]1CS(=O)(=O)c2cc(F)c(-c3noc(N4CCCC4)n3)cc2N(Cc2ccc(-c3noc(C(F)(F)F)n3)nc2)C1=O [Example 15, (3R)-3-amino-8-fluoro-1,1-dioxo-7-(5-pyrrolidin-1-yl-1,2,4-oxadiazol-3-yl)-5-[[6-[5-(trifluoromethyl)-1,2,4-oxadiazol-3-yl]-3-pyridyl]methyl]-2,3-dihydro-1λ^6,5-benzothiazepin-4-one] | 64 | 3200 |
| CC(C)Nc1nnc(-c2cc3c(cc2F)S(=O)(=O)C[C@H](N)C(=O)N3Cc2ccc(-c3noc(C(F)(F)F)n3)cc2)o1 [Example 6, (3R)-3-amino-8-fluoro-7-[5-(isopropylamino)-1,3,4-oxadiazol-2-yl]-1,1-dioxo-5-[[4-[5-(trifluoromethyl)-1,2,4-oxadiazol-3-yl]phenyl]methyl]-2,3-dihydro-1λ^6,5-benzothiazepin-4-one] | 109 | 765 |
| COC(=O)N1CC2CC(c3nnc(-c4ccc5c(c4)N(Cc4ccc(-c6ccc(C(F)(F)F)cc6)cc4)C(=O)[C@@H](N)CS5(=O)=O)o3)(C2)C1 [Example 60, methyl 1-[5-[(3R)-3-amino-1,1,4-trioxo-5-[[4-[4-(trifluoromethyl)phenyl]phenyl]methyl]-2,3-dihydro-1λ^6,5-benzothiazepin-7-yl]-1,3,4-oxadiazol-2-yl]-3-azabicyclo[3.1.1]heptane-3-carboxylate] | 110 | 41.7 |
| CC1(c2nnc(-c3ccc4c(c3)N(Cc3ccc(-c5noc(C(F)(F)F)n5)cc3)C(=O)[C@@H](N)CS4(=O)=O)o2)COC1 [Example 149, (3R)-3-amino-7-[5-(3-methyloxetan-3-yl)-1,3,4-oxadiazol-2-yl]-1,1-dioxo-5-[[4-[5-(trifluoromethyl)-1,2,4-oxadiazol-3-yl]phenyl]methyl]-2,3-dihydro-1λ^6,5-benzothiazepin-4-one] | 118 | 1210 |
| N[C@H]1CS(=O)(=O)c2ccc(-c3nnc(N4CCOC(C(F)(F)F)C4)o3)cc2N(Cc2ccc(-c3noc(C(F)(F)F)n3)cc2)C1=O (stereo partly drawn) [Example 74, (3R)-3-amino-1,1-dioxo-7-[5-[2-(trifluoromethyl)morpholin-4-yl]-1,3,4-oxadiazol-2-yl]-5-[[4-[5-(trifluoromethyl)-1,2,4-oxadiazol-3-yl]phenyl]methyl]-2,3-dihydro-1λ^6,5-benzothiazepin-4-one] | 148 | 527 |
| N[C@H]1CS(=O)(=O)c2ccc(-c3noc(C4(N)COC4)n3)cc2N(Cc2ccc(-c3noc(C(F)(F)F)n3)cc2)C1=O [Example 84, (3R)-3-amino-7-[5-(3-aminooxetan-3-yl)-1,2,4-oxadiazol-3-yl]-1,1-dioxo-5-[[4-[5-(trifluoromethyl)-1,2,4-oxadiazol-3-yl]phenyl]methyl]-2,3-dihydro-1lambda6,5-benzothiazepin-4-one] | 151 | 1750 |
| COC(=O)N1CC2CC(c3nnc(-c4ccc5c(c4)N(Cc4ccc(-c6ccc(OC)cc6)cc4)C(=O)[C@@H](N)CS5(=O)=O)o3)(C2)C1 [Example 59, methyl 1-[5-[(3R)-3-amino-5-[[4-(4-methoxyphenyl)phenyl]methyl]-1,1,4-trioxo-2,3-dihydro-1λ^6,5-benzothiazepin-7-yl]-1,3,4-oxadiazol-2-yl]-3-azabicyclo[3.1.1]heptane-3-carboxylate] | 103 | 29 |
| N[C@H]1CS(=O)(=O)c2ccc(-c3nnc(C4(CO)CCCO4)o3)cc2N(Cc2ccc(-c3ccc(C(F)(F)F)cc3)cc2)C1=O (stereo partly drawn) [Example 55] | 59 | 1090 |
| CC(c1nc(-c2ccc(CN3C(=O)[C@@H](N)CS(=O)(=O)c4ccc(-c5nnc(C6(N)CCCCC6)o5)cc43)cc2)no1)C(F)(F)F (stereo partly drawn) [Example 98, (3R)-3-amino-7-[5-(1-aminocyclohexyl)-1,3,4-oxadiazol-2-yl]-1,1-dioxo-5-[[4-[5-(2,2,2-trifluoro-1-methyl-ethyl)-1,2,4-oxadiazol-3-yl]phenyl]methyl]-2,3-dihydro-1λ^6,5-benzothiazepin-4-one] | 97 | 1820 |
| N[C@H]1CS(=O)(=O)c2ccc(-c3nnc(N4CCOC(C(F)(F)F)C4)o3)cc2N(Cc2ccc(-c3ccc(C(F)(F)F)cc3)cc2)C1=O (stereo partly drawn) [Example 73, (3R)-3-amino-1,1-dioxo-7-[5-[2-(trifluoromethyl)morpholin-4-yl]-1,3,4-oxadiazol-2-yl]-5-[[4-[4-(trifluoromethyl)phenyl]phenyl]methyl]-2,3-dihydro-1λ^6,5-benzothiazepin-4-one] | 95 | 828 |
| Cc1noc(-c2ccc(CN3C(=O)[C@@H](N)CS(=O)(=O)c4ccc(-c5nnc(C(C)(C)C)o5)cc43)cc2)n1 [Example 20, (3R)-3-amino-7-(5-tert-butyl-1,3,4-oxadiazol-2-yl)-5-[[4-(3-methyl-1,2,4-oxadiazol-5-yl)phenyl]methyl]-1,1-dioxo-2,3-dihydro-1λ^6,5-benzothiazepin-4-one] | 82 | 2380 |
| COc1ccc(-c2ccc(CN3C(=O)[C@@H](N)CS(=O)(=O)c4ccc(-c5nnc(C6(CO)CCCO6)o5)cc43)cc2)cc1 (stereo partly drawn) [Example 63, (3R)-3-amino-7-[5-[2-(hydroxymethyl)tetrahydrofuran-2-yl]-1,3,4-oxadiazol-2-yl]-5-[[4-(4-methoxyphenyl)phenyl]methyl]-1,1-dioxo-2,3-dihydro-1λ^6,5-benzothiazepin-4-one] | 103 | 1060 |
| COCCN1CC(c2nnc(-c3ccc4c(c3)N(Cc3ccc(-c5ccc(OC)cc5)cc3)C(=O)[C@@H](N)CS4(=O)=O)o2)CC(F)(F)C1 (stereo partly drawn) [Example 183, (3R)-3-amino-7-[5-[5,5-difluoro-1-(2-methoxyethyl)-3-piperidyl]-1,3,4-oxadiazol-2-yl]-5-[[4-(4-methoxyphenyl)phenyl]methyl]-1,1-dioxo-2,3-dihydro-1λ^6,5-benzothiazepin-4-one] | 156 | 1680 |
| N[C@H]1CS(=O)(=O)c2ccc(-c3nnc(C4(C5CC5)CCCO4)o3)cc2N(Cc2ccc(-c3nnc(C(F)(F)F)o3)cc2)C1=O (stereo partly drawn) [Example 97, (3R)-3-amino-7-[5-(2-cyclopropyltetra-hydrofuran-2-yl)-1,3,4-oxadiazol-2-yl]-1,1-dioxo-5-[[4-[5-(trifluoromethyl)-1,3,4-oxadiazol-2-yl]phenyl]methyl]-2,3-dihydro-1λ6,5-benzothiazepin-4-one] | 96 | 375 |
| CC1(c2nnc(-c3ccc4c(c3)N(Cc3ccc(-c5ccc(C(F)(F)F)cc5)cc3)C(=O)[C@@H](N)CS4(=O)=O)o2)CCO1 (stereo partly drawn) [Example 48, (3R)-3-amino-7-[5-(2-methyloxetan-2-yl)-1,3,4-oxadiazol-2-yl]-1,1-dioxo-5-[[4-[4-(trifluoromethyl)phenyl]phenyl]methyl]-2,3-dihydro-1lambda6,5-benzothiazepin-4-one] | 139 | 321 |
| N#CC1CN(c2nnc(-c3ccc4c(c3)N(Cc3ccc(-c5noc(C(F)(F)F)n5)cc3)C(=O)[C@@H](N)CS4(=O)=O)o2)CCO1 (stereo partly drawn) [Example 163, 4-[5-[(3R)-3-amino-1,1,4-trioxo-5-[[4-[5-(trifluoromethyl)-1,2,4-oxadiazol-3-yl]phenyl]methyl]-2,3-dihydro-1λ^6,5-benzothiazepin-7-yl]-1,3,4-oxadiazol-2-yl]morpholine-2-carbonitrile] | 106 | 6440 |
| CC(C)(C)c1nnc(-c2ccc3c(c2)N(Cc2ccc(-c4noc(C(F)(F)F)n4)cc2)C(=O)[C@@H](N)CS3(=O)=O)o1 [Example 23, (3R)-3-amino-7-(5-tert-butyl-1,3,4-oxadiazol-2-yl)-1,1-dioxo-5-[[4-[5-(trifluoromethyl)-1,2,4-oxadiazol-3-yl]phenyl]methyl]-2,3-dihydro-1λ^6,5-benzothiazepin-4-one] | 136 | 316 |
| CC(C)(C)c1nnc(-c2ccc3c(c2)N(Cc2ccc(-n4cc(C(F)(F)F)cn4)cc2)C(=O)[C@@H](N)CS3(=O)=O)o1 [Example 25, (3R)-3-amino-7-(5-tert-butyl-1,3,4-oxadiazol-2-yl)-1,1-dioxo-5-[[4-[4-(trifluoromethyl)pyrazol-1-yl]phenyl]methyl]-2,3-dihydro-1λ^6,5-benzothiazepin-4-one] | 131 | 2930 |
| N[C@H]1CS(=O)(=O)c2ccc(-c3noc(-c4cccnc4C(F)(F)F)n3)cc2N(Cc2ccc(-c3noc(C4CC4)n3)cc2)C1=O [Example 87, (3R)-3-amino-5-[[4-(5-cyclopropyl-1,2,4-oxadiazol-3-yl)phenyl]methyl]-1,1-dioxo-7-[5-[2-(trifluoromethyl)-3-pyridyl]-1,2,4-oxadiazol-3-yl]-2,3-dihydro-1λ^6,5-benzothiazepin-4-one] | 106 | 3620 |
| CC(C)(C)c1nnc(-c2ccc3c(c2)N(Cc2ccc(-n4cnc(C(F)(F)F)c4)cc2)C(=O)[C@@H](N)CS3(=O)=O)o1 [Example 28, (3R)-3-amino-7-(5-tert-butyl-1,3,4-oxadiazol-2-yl)-1,1-dioxo-5-[[4-[4-(trifluoromethyl)imidazol-1-yl]phenyl]methyl]-2,3-dihydro-1λ^6,5-benzothiazepin-4-one] | 108 | 3510 |
| CC(C)(C)c1nnc(-c2ccc3c(c2)N(Cc2ccc(-n4ccc(C(F)(F)F)n4)cc2)C(=O)[C@@H](N)CS3(=O)=O)o1 [Example 27] | 212 | 252 |

— US20260138976A1 (Hoffmann-La Roche Inc., priority 2022, published 2026)
